Laboratory results reported in patent US7638496B2 (priority 2000, dated 2009).

Columns and labels:
PTV (Adames strain) = assay: PTV infection in C57BL/6 mice in vivo; conditions: 24 h post infection by PTV
Method: For 24 h post infection by PTV in vivo the minimum effective s.c. dose of 32 mg/kg for ribavirin and for viramidine was 96 mg/kg given s.c. b.i.d for 5 days. For 24 h post infection by PTV in vivo the minimum effective p.o. dose of 20 mg/kg for ribavirin and for viramidine was 40 mg/kg given p.o. b.i.d for 5 days.

IMP dehydrogenease = conditions: cited from earlier work

NC(=O)c1ncn([C@@H]2O[C@H](CO)[C@@H](O)[C@H]2O)n1 [Ribavirin, 1-β-D-ribofuranosyl-1,2,4-triazole-3-carboxamide]
minimum effective p.o. dose (PTV (Adames strain); p.o. b.i.d for 5 days): 20 mg/kg
minimum effective s.c. dose (PTV (Adames strain); s.c. b.i.d for 5 days): 32 mg/kg
IMP dehydrogenase inhibition (IMP dehydrogenease): inhibitor of IMP dehydrogenease
